Reference: paper PMC9226319, “Peripherally restricted transthyretin-based delivery system for probes and therapeutics avoiding opioid-related side effects” (Nature Communications, 2022)
Values joined by “and” are separate entries in the source; they are usually repeats but may differ in a detail not shown here. Identical values can stand only once. Like-named read-outs stand apart in the source and are kept apart here.

Assays:
holo-RBP-TTR interaction = holo-RBP-TTR interaction (Homo sapiens, UniProt P02766); test: Effect on holo-RBP-TTR interaction in human serum (cross-linking, Western blot); conditions: human serum, quantified from gel image, replicates (Supp Fig.14b)
purified human TTR = purified human TTR (Homo sapiens, UniProt P02766); test: Fluorescence polarization (FP) binding assay, ligands to TTR in buffer
TTR in human serum = TTR in human serum (Homo sapiens, UniProt P02766); test: TTR serum fluorescent probe exclusion (FPE) selectivity assay; assay type: binding; conditions: ligand 10 µM; for %FPE probe fluorescence: human serum, replicates
male Sprague-Dawley rats = conditions: cited from earlier work
[1] = biological target: human mu-opioid receptors (Homo sapiens, UniProt P35372); conditions: cited from earlier work
Sequence of human mu-opioid receptors (P35372 whole entry): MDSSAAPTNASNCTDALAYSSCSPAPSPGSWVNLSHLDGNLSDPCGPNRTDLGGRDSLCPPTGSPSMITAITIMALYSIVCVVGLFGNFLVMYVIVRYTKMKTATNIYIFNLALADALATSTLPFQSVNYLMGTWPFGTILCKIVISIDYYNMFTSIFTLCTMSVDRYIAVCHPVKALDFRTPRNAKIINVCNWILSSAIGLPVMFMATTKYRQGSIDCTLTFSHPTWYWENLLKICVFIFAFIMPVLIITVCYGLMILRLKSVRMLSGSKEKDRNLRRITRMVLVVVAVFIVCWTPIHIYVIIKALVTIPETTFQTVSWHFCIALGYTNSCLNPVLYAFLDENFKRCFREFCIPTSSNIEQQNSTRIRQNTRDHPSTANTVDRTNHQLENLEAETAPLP

## Cc1n[nH]c(C)c1CCCOc1cc(OCCCCCCN)cc(C(=O)O)c1 [Compound 1]
holo-RBP-TTR interaction
  %holo RBP binding to TTR: 8% and 6.2% and 5.8%
Purified human TTR; FP assay, Kd from IC50 by Cheng-Prusoff, read-out: binding affinity to TTR in buffer (Kd)
  Kd: 68.5 nM
Purified human TTR; log [nM] inhibitor 0.990
  % Fluorescence polarization (mean): 100.000%
Purified human TTR; log [nM] inhibitor 1.291
  % Fluorescence polarization (mean): 100.180%
Purified human TTR; log [nM] inhibitor 1.592
  % Fluorescence polarization (mean): 101.890%
Purified human TTR; log [nM] inhibitor 1.893
  % Fluorescence polarization (mean): 93.660%
Purified human TTR; log [nM] inhibitor 2.194
  % Fluorescence polarization (mean): 79.820%
Purified human TTR; log [nM] inhibitor 2.495
  % Fluorescence polarization (mean): 50.610%
Purified human TTR; log [nM] inhibitor 2.796
  % Fluorescence polarization (mean): 29.820%
Purified human TTR; log [nM] inhibitor 3.097
  % Fluorescence polarization (mean): 10.200%
Purified human TTR; log [nM] inhibitor 3.398
  % Fluorescence polarization (mean): 5.680%
Purified human TTR; log [nM] inhibitor 3.699
  % Fluorescence polarization (mean): 2.100%
Purified human TTR; log [nM] inhibitor 4.000
  % Fluorescence polarization (mean): 0.000%
Purified human TTR; log [nM] inhibitor […]
  % Fluorescence polarization (mean): 0.000%
TTR in human serum; FPE probe 3.6 µM, 3 h reading relative to probe alone, text mean ± s.d., table replicates
  % TTR occupancy in human serum: 80.97% and 81.01% and 82.98% and 80.85%
TTR in human serum; time 0.000 h
  %FPE probe fluorescence: 0.000%
TTR in human serum; time 0.083 h
  %FPE probe fluorescence: 1.647% and 2.385% and -0.604% and 3.064%
TTR in human serum; time 0.250 h
  %FPE probe fluorescence: 1.886% and 5.252% and 4.502% and 2.159%
TTR in human serum; time 0.500 h
  %FPE probe fluorescence: 6.344% and 5.631% and 7.192% and 4.320%
TTR in human serum; time 1.000 h
  %FPE probe fluorescence: 3.308% and 7.416% and 10.395% and 10.953%
TTR in human serum; time 1.250 h
  %FPE probe fluorescence: 4.585% and 8.580% and 11.565% and 11.702%
TTR in human serum; time 1.500 h
  %FPE probe fluorescence: 7.132% and 12.681% and 12.080% and 11.106%
TTR in human serum; time 1.750 h
  %FPE probe fluorescence: 8.769% and 12.456% and 13.547% and 12.819%
TTR in human serum; time 2.000 h
  %FPE probe fluorescence: 10.680% and 14.441% and 12.622% and 13.836%
TTR in human serum; time 2.250 h
  %FPE probe fluorescence: 13.720% and 16.433% and 14.485% and 14.975%
TTR in human serum; time 2.500 h
  %FPE probe fluorescence: 13.664% and 19.254% and 16.706% and 17.421%
TTR in human serum; time 2.750 h
  %FPE probe fluorescence: 17.610% and 18.428% and 15.401% and 17.419%
TTR in human serum; time 3.000 h
  %FPE probe fluorescence: 19.032% and 18.994% and 17.022% and 19.151%
TTR in human serum; time 3.500 h
  %FPE probe fluorescence: 21.344% and 21.727% and 19.004% and 22.809%
TTR in human serum; time 3.750 h
  %FPE probe fluorescence: 22.381% and 21.465% and 19.735% and 21.684%
TTR in human serum; time 4.000 h
  %FPE probe fluorescence: 24.245% and 24.044% and 22.333% and 25.118%
TTR in human serum; time 4.250 h
  %FPE probe fluorescence: 24.067% and 25.243% and 24.565% and 26.782%
TTR in human serum; time 4.500 h
  %FPE probe fluorescence: 26.784% and 27.018% and 26.091% and 25.883%
TTR in human serum; time 4.750 h
  %FPE probe fluorescence: 28.232% and 25.575% and 25.168% and 25.868%
TTR in human serum; time 5.000 h
  %FPE probe fluorescence: 29.310% and 28.226% and 25.991% and 29.486%
TTR in human serum; time 5.250 h
  %FPE probe fluorescence: 29.376% and 30.191% and 26.180% and 29.320%
TTR in human serum; time 5.500 h
  %FPE probe fluorescence: 30.897% and 29.807% and 29.795% and 31.357%
TTR in human serum; time 5.750 h
  %FPE probe fluorescence: 32.177% and 31.200% and 28.228% and 32.379%
TTR in human serum; time 6.000 h
  %FPE probe fluorescence: 33.601% and 32.676% and 30.907% and 33.191%

## CN(C)C(=O)C(CCN1CCC(O)(c2ccc(Cl)cc2)CC1)(c1ccccc1)c1ccccc1 [Loperamide]
Male Sprague-Dawley rats; 30 mg/kg
  GI transit: 30%
Male Sprague-Dawley rats; subcutaneous 1 mg/kg
  GI transit: 50%
Male Sprague-Dawley rats; subcutaneous
  ED50 for inducing constipation: 1 mg/kg

## C[N+]1(CC2CC2)CC[C@]23c4c5ccc(O)c4O[C@H]2C(=O)CC[C@@]3(O)[C@H]1C5 (some centres unmarked) [MNTX]
[1]
  affinity for the mu-opioid receptors as % of naltrexone: 1%
[1]; read-out: binding affinity to mu-opioid receptor (Ki)
  Ki: 22.1 nM
